Experimental data reported in patent US20120184591A1, “METHODS FOR TREATING PROSTATITIS” (WATSON PHARMACEUTICALS, INC., priority 2011, published 2012).

Legend:
[1] = Study SI06004: plasma pharmacokinetics of silodosin and metabolites, 8 mg once daily for 7 days; type: in vivo, human; conditions: for Tmax: 8 mg once daily, immediate-release
Procedure: FIG. 2 depicts the mean steady-state silodosin plasma concentration versus time profile in fed target-aged subjects after administering 8 mg silodosin QD (from Study SI06004).
This is illustrated in Table 1 and FIG. 2. Study SI06004 assessed the area under the plasma concentration time curve for silodosin and four of its metabolites, as well as safety and tolerability, following administration of 8 mg once daily for 7 days.

[2] = Study SI07004: silodosin pharmacokinetics after seven daily doses of 4 mg or 8 mg in healthy male subjects; type: in vivo, human; conditions: after 7 days of dosing; for AUC(0-t) / half-life / Cmax / Tmax: male, human, plasma
Excerpt: FIG. 3 depicts the mean silodosin plasma concentration time profile by dose level and timepoint after multiple doses (from Study SI07004).

men with CP/CPPS [3] = experiment: 12-week double-blind placebo-controlled Phase II study (NCT00740779): efficacy (NIH-CPSI, SF-12, GRA); type: in vivo, human; conditions: for SF-12 mental component, adjusted mean difference versus placebo (95% CI) / SF-12 mental component, change from baseline, mean ± SD / SF-12 physical component, adjusted mean difference versus placebo (95% CI) / SF-12 physical component, change from baseline, mean ± SD: study end, ITT
Procedure: (§1) A 12-week, multicenter, double-blind, placebo-controlled, Phase II study (ClinicalTrials.gov identifier: NCT00740779) was conducted between September 2008 and October 2009. The protocol was approved by an Institutional Review Board before study initiation, and the study was conducted in accordance with the Declaration of Helsinki and the US Code of Federal Regulations. The primary end point was change from baseline to week 12 in the NIH—CPSI total score. Secondary end points included safety; change from baseline in NIH—CPSI pain, urinary, and HRQoL subscores; and change from baseline in SF-12 physical and mental component scores. In addition, responder analyses were conducted for the global response assessment (GRA) and NIH—CPSI at week 12.
Study participants were recruited from 32 centers across the United States, including mostly community-based practices and a few university medical centers. […] Patients were excluded if they had participated in a study of an investigational agent within the past 30 days, had experienced two or more urinary tract infections within the previous 12 months, or had medical conditions potentially precluding safe study participation or affecting study results, such as significant postural hypotension, abnormal test results of digital rectal examinations (except benign prostate enlargement), prostate-specific antigen >10.0 ng/mL, and liver or renal insufficiency. Patients treated with medications that might confound study results, such as α-blockers (for conditions other than CP/CPPS), 5α-reductase inhibitors, tricyclic antidepressants, androgens, and ketoconazole, had to undergo appropriate washout periods to be eligible.
(§2) Patients were randomized 1:1:1 to receive silodosin 4 mg, silodosin 8 mg, or placebo once daily with food at breakfast for 12 weeks. Two doses of silodosin were chosen to evaluate the dose dependency of treatment effects in patients with CP/CPPS. The maximum dose of silodosin 8 mg/d was selected based on its established safety and efficacy profile in patients with BPH.
(§3) Baseline parameters were assessed after a 4-week screening period. All efficacy assessments were made with self-administered patient surveys. Patients completed the NIH—CPSI and subscales, GRA scale, and pain medication usage surveys at baseline and at weeks 4, 8, and 12 of the study. SF-12 was completed at baseline and at study end (week 12 or time of discontinuation). Safety was monitored over the course of the study through adverse events reporting, clinical laboratory tests, and vital signs assessments.
(§4) All efficacy and safety data were summarized using descriptive statistics for continuous variables and frequency distributions for categorical variables. Efficacy end points were analyzed in the intent-to-treat (ITT) population, which consisted of all randomized patients with a baseline assessment for the NIH—CPSI total score. The primary efficacy variable and continuous secondary variables were analyzed for significance at α=0.05 (with Bonferroni correction for multiple comparisons) using analysis of covariance models with the baseline measurement of the efficacy variable as the covariate and effects of treatment. Because of the small number of patients in many participating centers, study center was not included in statistical analysis models. All analyses were conducted with SAS® v8.2 (SAS Institute Inc., Cary, N.C.). Last observation carried forward (LOCF) was used to impute missing values. […] GRA and NIH—CPSI responder analyses were done with chi-square tests at α=0.025 (two-sided) to account for multiple comparisons.

men with CP/CPPS [4] = experiment: 12-week Phase II study (NCT00740779): safety and tolerability (adverse events); type: in vivo, human
Procedure: as §1, §2, §3, §4

α1A receptor = target: T1, α1A receptor (Homo sapiens, UniProt P35348); conditions: cited from earlier work
T1 sequence (P35348 1-466): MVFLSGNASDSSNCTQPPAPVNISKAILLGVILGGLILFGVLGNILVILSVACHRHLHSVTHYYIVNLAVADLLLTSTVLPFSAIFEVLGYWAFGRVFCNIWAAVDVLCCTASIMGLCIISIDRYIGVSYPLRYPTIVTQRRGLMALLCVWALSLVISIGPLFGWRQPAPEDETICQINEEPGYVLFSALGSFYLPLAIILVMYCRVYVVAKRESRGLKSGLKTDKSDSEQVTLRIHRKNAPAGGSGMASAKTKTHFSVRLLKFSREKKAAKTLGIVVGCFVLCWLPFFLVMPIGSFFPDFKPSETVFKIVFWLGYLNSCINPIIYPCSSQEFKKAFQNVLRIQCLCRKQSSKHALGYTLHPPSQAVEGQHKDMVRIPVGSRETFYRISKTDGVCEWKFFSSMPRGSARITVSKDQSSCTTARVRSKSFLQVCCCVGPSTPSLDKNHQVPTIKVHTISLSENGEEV

patients with CP/CPPS = conditions: 10 mg once daily, versus placebo; cited from earlier work
[5] = 4 mg, Week 12 ET (early termination counted as nonresponse)
[6] = 8 mg once daily for 7 days, mean (SD)

C[C@H](Cc1cc2c(c(C(N)=O)c1)N(CCCO)CC2)NCCOc1ccccc1OCC(F)(F)F [silodosin]
Tmax ([1]; human, plasma, oral, 8 mg, mean (SD), read-out: Tmax): ~2.6 h
AUC(0-t) ([1]; human, plasma, oral, 8 mg once daily for 7 days, mean (SD), read-out: AUC(0-24)): 373 ng·h/mL
Cmax ([1]; human, plasma, oral, 8 mg once daily for 7 days, mean (SD), read-out: Cmax): 61.6 ng/mL
half-life ([1]; human, plasma, oral, 8 mg once daily for 7 days, mean ± SD): 13.3 h
kel, median ([2]; 4 mg): 0.0489 h⁻¹
kel, mean ([2]; 4 mg, n 19): 0.0552 h⁻¹
kel, median ([2]; 8 mg): 0.0573 h⁻¹
kel, mean ([2]; 8 mg, n 21): 0.0551 h⁻¹
AUC(0-t) ([2]; 4 mg, N = 22, read-out: AUC [0-24], mean): 159 ng·h/mL
half-life ([2]; 4 mg, n 19, read-out: t½, mean (converted)): 15.3 h
AUC(0-t) ([2]; 4 mg, read-out: AUC [0-24], median): 156 ng·h/mL
Cmax ([2]; 4 mg, read-out: Cmax, mean): 28.4 ng/mL
Cmax ([2]; 4 mg, read-out: Cmax, median): 26.1 ng/mL
Tmax ([2]; 4 mg, read-out: Tmax, mean): 2.4 h
Tmax ([2]; 4 mg, read-out: Tmax, median): 2 h
half-life ([2]; 4 mg, read-out: t½, median (converted)): 14.2 h
AUC(0-t) ([2]; 8 mg, N = 22, read-out: AUC [0-24], mean): 297 ng·h/mL
half-life ([2]; 8 mg, n 21, read-out: t½, mean (converted)): 14.4 h
AUC(0-t) ([2]; 8 mg, read-out: AUC [0-24], median): 276 ng·h/mL
Cmax ([2]; 8 mg, read-out: Cmax, mean): 51.1 ng/mL
Cmax ([2]; 8 mg, read-out: Cmax, median): 50.3 ng/mL
Tmax ([2]; 8 mg, read-out: Tmax, mean): 2.5 h
Tmax ([2]; 8 mg, read-out: Tmax, median): 2 h
half-life ([2]; 8 mg, read-out: t½, median (converted)): 12.1 h
SF-12 mental component, adjusted mean difference versus placebo (95% CI) (men with CP/CPPS [3]; 4 mg once daily): 1.5 (−1.9, 4.9)
SF-12 mental component, change from baseline, mean ± SD (men with CP/CPPS [3]; 4 mg once daily): 3.2 ± 7.3
SF-12 physical component, adjusted mean difference versus placebo (95% CI) (men with CP/CPPS [3]; 4 mg once daily): 3.0 (0.01, 6.0)
SF-12 physical component, change from baseline, mean ± SD (men with CP/CPPS [3]; 4 mg once daily): 4.2±8.1
NIH-CPSI pain score, adjusted mean difference versus placebo (95% CI) (men with CP/CPPS [3]; 4 mg once daily, week 12, ITT): −1.6 (−3.4, 0.3)
NIH-CPSI pain score, change from baseline, mean ± SD (men with CP/CPPS [3]; 4 mg once daily, week 12, ITT): −5.9 ± 4.5
NIH-CPSI quality-of-life impact score, adjusted mean difference versus placebo (95% CI) (men with CP/CPPS [3]; 4 mg once daily, week 12, ITT): −1.5 (−2.8, −0.3)
NIH-CPSI quality-of-life impact score, change from baseline, mean ± SD (men with CP/CPPS [3]; 4 mg once daily, week 12, ITT): −4.1 ± 3.1
NIH-CPSI total score, change from baseline, mean ± SD (men with CP/CPPS [3]; 4 mg once daily, week 12, ITT): −12.1±9.3
NIH-CPSI urinary symptoms score, adjusted mean difference versus placebo (95% CI) (men with CP/CPPS [3]; 4 mg once daily, week 12, ITT): −1.4 (−2.5, −0.3)
NIH-CPSI urinary symptoms score, change from baseline, mean ± SD (men with CP/CPPS [3]; 4 mg once daily, week 12, ITT): −2.2 ± 2.7
GRA responders, patients (men with CP/CPPS [3]; [5]): 55.8%
NIH-CPSI responders, patients (men with CP/CPPS [3]; [5]): 59.6%
SF-12 mental component, adjusted mean difference versus placebo (95% CI) (men with CP/CPPS [3]; 8 mg once daily): −1.4 (−4.9, 2.1)
SF-12 mental component, change from baseline, mean ± SD (men with CP/CPPS [3]; 8 mg once daily): 0.5 ± 7.2
SF-12 physical component, adjusted mean difference versus placebo (95% CI) (men with CP/CPPS [3]; 8 mg once daily): 2.7 (−0.4, 5.8)
SF-12 physical component, change from baseline, mean ± SD (men with CP/CPPS [3]; 8 mg once daily): 4.4 ± 7.0
NIH-CPSI pain score, adjusted mean difference versus placebo (95% CI) (men with CP/CPPS [3]; 8 mg once daily, week 12, ITT): −0.5 (−2.4, 1.4)
NIH-CPSI pain score, change from baseline, mean ± SD (men with CP/CPPS [3]; 8 mg once daily, week 12, ITT): −4.9 ± 5.0
NIH-CPSI quality-of-life impact score, adjusted mean difference versus placebo (95% CI) (men with CP/CPPS [3]; 8 mg once daily, week 12, ITT): −0.7 (−2.0, 0.5)
NIH-CPSI quality-of-life impact score, change from baseline, mean ± SD (men with CP/CPPS [3]; 8 mg once daily, week 12, ITT): −3.5 ± 3.0
NIH-CPSI urinary symptoms score, adjusted mean difference versus placebo (95% CI) (men with CP/CPPS [3]; 8 mg once daily, week 12, ITT): −0.8 (−1.9, 0.3)
NIH-CPSI urinary symptoms score, change from baseline, mean ± SD (men with CP/CPPS [3]; 8 mg once daily, week 12, ITT): −1.8 ± 2.4
NIH-CPSI responders, patients (men with CP/CPPS [3]; 8 mg, Week 12 ET (early termination counted as nonresponse)): 46.7%
Drug-related adverse events leading to discontinuation, all (men with CP/CPPS [4]; 4 mg): 3 n
Drug-related adverse events leading to discontinuation: RE/libido decreased (men with CP/CPPS [4]; 4 mg): 1 n
Drug-related adverse events leading to discontinuation: ejaculation failure (men with CP/CPPS [4]; 4 mg): 1 n
Drug-related adverse events leading to discontinuation: rash (men with CP/CPPS [4]; 4 mg): 1 n
Patients who discontinued study participation because of a drug-related adverse event (men with CP/CPPS [4]; 4 mg): 5.8%
Drug-related adverse event: Headache, patients (men with CP/CPPS [4]; 4 mg, safety population (n = 52)): 0 n
Patients who experienced serious adverse events (men with CP/CPPS [4]; 4 mg, not considered drug-related by the investigator (severe urosepsis; moderate syncope)): Two
Drug-related adverse events leading to discontinuation, all (men with CP/CPPS [4]; 8 mg): 6 n
Drug-related adverse events leading to discontinuation: RE (men with CP/CPPS [4]; 8 mg): 4 n
Drug-related adverse events leading to discontinuation: nasal congestion (men with CP/CPPS [4]; 8 mg): 2 n
Patients who discontinued study participation because of a drug-related adverse event (men with CP/CPPS [4]; 8 mg): 13.3%
Selectivity for the α1A receptor relative to α1B and α1D receptors (α1A receptor): high selectivity

COc1cc2nc(N(C)CCCNC(=O)C3CCCO3)nc(N)c2cc1OC (stereo not shown) [alfuzosin]
Reducing the symptoms of CP/CPPS (patients with CP/CPPS): not more effective than placebo

C[C@H](Cc1cc2c(c(C(N)=O)c1)N(CCC(=O)O)CC2)NCCOc1ccccc1OCC(F)(F)F [compound 3293]
AUC(0-24) [1, 6]: 373.0 (141.72) ng * hr/mL
Cmax [1, 6]: 34.3 (12.58) ng/mL
Tmax ([1]; mean (SD)): 4.1 (1.29) hr

C[C@H](Cc1cc2c(c(C(N)=O)c1)N(CCCO[C@@H]1O[C@H](C(=O)O)[C@@H](O)[C@H](O)[C@H]1O)CC2)NCCOc1ccccc1OCC(F)(F)F [3213G]
AUC(0-24) [1, 6]: 1660.5 (647.23) ng * hr/mL
Cmax [1, 6]: 102.4 (36.51) ng/mL
Tmax ([1]; mean (SD)): 5.5 (2.29) hr
